Data reported in ChEMBL document CHEMBL5291721, “A preclinical secondary pharmacology resource illuminates target-adverse drug reaction associations of marketed drugs” (Nat Commun, 2023).

Legend:
Thromboxane A2 receptor = target: T1, Thromboxane A2 receptor (Homo sapiens, UniProt P21731)
T1 sequence (P21731 whole entry): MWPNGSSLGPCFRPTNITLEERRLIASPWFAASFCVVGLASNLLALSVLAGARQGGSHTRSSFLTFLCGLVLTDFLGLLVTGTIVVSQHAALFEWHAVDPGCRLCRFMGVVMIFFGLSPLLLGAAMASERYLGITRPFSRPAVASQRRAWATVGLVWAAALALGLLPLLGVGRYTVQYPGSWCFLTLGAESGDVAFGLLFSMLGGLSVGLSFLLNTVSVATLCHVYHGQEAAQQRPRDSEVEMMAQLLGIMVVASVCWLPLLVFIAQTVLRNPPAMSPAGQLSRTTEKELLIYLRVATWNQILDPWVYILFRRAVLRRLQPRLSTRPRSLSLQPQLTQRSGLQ

Cannabinoid receptor 1 = Cannabinoid receptor 1 (Homo sapiens, UniProt P21554); assay type: functional, cell-based
[1] = target: T2, Muscarinic acetylcholine receptor M1 (Homo sapiens, UniProt P11229); assay type: functional
T2 sequence (P11229 whole entry): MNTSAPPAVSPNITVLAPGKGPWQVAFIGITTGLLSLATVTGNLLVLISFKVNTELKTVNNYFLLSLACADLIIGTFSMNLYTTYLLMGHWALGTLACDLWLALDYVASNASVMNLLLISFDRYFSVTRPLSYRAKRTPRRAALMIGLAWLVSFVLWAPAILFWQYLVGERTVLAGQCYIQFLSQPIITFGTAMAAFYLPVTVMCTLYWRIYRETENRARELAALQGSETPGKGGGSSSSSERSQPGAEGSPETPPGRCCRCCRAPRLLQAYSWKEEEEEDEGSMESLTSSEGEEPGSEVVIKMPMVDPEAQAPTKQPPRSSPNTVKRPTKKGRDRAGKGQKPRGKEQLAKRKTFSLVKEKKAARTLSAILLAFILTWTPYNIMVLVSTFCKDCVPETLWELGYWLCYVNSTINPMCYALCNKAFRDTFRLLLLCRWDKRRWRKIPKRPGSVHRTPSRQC

Estrogen receptor = target: T3, Estrogen receptor (Homo sapiens, UniProt P03372)
T3 sequence (P03372 whole entry): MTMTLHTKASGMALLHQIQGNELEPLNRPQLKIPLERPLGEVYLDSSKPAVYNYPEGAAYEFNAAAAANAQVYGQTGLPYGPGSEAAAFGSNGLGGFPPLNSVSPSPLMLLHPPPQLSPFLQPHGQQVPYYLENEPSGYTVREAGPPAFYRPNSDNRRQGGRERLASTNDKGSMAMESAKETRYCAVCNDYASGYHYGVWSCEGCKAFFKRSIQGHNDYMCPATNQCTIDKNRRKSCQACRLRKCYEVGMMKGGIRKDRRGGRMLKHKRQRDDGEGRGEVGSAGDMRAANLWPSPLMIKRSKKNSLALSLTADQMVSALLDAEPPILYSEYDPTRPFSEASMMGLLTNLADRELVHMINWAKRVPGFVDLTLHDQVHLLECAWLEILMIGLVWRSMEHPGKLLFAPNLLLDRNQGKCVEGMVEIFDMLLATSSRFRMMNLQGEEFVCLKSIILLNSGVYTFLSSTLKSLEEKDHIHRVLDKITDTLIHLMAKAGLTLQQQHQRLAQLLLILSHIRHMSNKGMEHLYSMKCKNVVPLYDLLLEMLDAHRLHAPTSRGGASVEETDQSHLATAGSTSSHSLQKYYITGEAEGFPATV

[2] = target: Voltage-dependent L-type calcium channel subunit alpha-1C (Rattus norvegicus, UniProt P22002); assay type: functional
Melanocortin receptor 3 = Melanocortin receptor 3 (Homo sapiens, UniProt P41968)
[3] = target: T4, Amine oxidase [flavin-containing] A (Homo sapiens, UniProt P21397); assay type: functional
T4 sequence (P21397 whole entry): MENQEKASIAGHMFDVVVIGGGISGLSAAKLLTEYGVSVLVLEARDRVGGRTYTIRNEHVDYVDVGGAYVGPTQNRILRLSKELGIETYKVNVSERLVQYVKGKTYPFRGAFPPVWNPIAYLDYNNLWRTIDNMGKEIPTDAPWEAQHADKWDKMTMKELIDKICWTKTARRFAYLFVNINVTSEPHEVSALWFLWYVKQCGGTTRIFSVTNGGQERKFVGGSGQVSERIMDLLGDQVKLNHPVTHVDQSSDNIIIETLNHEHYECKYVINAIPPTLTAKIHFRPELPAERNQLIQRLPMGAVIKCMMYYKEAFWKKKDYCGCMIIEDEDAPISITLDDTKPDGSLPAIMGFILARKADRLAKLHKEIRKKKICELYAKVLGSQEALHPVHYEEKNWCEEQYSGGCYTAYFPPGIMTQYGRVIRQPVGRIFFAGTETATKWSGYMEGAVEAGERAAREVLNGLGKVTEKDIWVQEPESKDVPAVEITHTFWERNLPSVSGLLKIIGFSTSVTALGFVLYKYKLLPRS

[4] = target: T5, 5-hydroxytryptamine receptor 1A (Homo sapiens, UniProt P08908); assay type: functional, cell-based
T5 sequence (P08908 whole entry): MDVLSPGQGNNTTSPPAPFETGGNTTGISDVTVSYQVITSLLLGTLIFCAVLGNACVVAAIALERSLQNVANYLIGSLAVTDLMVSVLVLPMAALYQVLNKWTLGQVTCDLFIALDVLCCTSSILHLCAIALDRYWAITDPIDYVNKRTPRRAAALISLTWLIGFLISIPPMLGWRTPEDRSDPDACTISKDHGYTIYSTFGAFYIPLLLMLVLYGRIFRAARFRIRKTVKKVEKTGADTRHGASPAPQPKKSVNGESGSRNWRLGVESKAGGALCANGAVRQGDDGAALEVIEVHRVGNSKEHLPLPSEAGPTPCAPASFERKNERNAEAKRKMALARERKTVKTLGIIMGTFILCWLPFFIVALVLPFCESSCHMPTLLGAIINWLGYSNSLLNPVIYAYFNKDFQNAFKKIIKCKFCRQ
Note: assay procedure not described here.

Sequence of Voltage-dependent L-type calcium channel subunit alpha-1C (P22002 whole entry): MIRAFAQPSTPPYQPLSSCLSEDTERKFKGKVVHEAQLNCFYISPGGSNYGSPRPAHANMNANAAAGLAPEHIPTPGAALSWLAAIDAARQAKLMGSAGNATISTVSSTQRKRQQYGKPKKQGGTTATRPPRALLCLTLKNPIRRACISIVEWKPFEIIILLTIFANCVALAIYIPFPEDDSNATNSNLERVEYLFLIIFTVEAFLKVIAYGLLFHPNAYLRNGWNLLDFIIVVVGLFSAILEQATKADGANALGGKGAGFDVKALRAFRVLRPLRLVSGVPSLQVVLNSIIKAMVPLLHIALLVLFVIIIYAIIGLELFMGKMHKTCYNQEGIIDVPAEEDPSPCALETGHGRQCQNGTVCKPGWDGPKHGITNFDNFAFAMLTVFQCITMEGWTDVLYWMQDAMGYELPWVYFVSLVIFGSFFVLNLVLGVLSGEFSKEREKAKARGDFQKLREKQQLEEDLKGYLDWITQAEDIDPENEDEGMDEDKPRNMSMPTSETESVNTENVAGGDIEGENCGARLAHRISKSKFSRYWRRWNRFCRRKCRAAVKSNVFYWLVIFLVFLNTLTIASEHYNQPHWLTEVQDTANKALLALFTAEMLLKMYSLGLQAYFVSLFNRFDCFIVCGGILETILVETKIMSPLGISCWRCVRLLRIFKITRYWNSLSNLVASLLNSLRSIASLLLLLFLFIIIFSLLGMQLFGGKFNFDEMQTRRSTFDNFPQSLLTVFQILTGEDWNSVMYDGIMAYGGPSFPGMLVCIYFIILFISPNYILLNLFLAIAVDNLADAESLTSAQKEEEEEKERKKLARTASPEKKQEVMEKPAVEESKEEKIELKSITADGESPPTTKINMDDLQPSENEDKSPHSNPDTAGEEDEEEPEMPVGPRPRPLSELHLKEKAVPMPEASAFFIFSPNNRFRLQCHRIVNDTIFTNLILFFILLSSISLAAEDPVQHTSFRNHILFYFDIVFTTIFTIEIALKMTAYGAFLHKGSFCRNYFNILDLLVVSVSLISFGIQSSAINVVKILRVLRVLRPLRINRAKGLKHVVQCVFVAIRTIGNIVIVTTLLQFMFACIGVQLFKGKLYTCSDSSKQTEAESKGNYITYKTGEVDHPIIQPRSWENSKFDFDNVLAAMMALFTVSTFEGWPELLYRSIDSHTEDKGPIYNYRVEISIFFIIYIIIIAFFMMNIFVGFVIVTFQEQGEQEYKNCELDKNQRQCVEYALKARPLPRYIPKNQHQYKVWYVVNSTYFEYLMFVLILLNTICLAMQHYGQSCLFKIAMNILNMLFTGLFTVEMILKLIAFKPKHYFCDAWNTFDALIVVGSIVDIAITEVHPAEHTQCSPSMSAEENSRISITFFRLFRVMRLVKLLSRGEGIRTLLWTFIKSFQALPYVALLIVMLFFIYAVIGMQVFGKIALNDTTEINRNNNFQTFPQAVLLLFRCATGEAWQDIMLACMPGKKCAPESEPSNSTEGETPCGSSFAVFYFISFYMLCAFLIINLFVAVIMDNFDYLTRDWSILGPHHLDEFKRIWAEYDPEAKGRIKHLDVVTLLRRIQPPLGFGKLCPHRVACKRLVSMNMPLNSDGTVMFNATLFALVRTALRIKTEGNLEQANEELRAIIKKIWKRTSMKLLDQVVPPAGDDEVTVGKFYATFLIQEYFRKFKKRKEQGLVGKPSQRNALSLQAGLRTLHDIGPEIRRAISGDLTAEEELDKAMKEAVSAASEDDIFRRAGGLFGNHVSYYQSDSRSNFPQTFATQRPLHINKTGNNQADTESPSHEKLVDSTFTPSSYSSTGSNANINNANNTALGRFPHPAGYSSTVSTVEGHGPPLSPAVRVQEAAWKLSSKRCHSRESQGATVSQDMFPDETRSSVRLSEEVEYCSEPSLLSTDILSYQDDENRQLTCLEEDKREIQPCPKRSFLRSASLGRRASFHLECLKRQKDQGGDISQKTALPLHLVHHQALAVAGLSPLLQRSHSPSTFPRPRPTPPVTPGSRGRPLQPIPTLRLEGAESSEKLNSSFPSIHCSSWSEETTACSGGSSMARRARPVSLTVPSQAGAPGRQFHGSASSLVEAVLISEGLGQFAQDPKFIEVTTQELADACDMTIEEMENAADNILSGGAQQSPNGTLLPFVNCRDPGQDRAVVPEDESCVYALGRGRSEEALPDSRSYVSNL
Sequence of Melanocortin receptor 3 (P41968 whole entry): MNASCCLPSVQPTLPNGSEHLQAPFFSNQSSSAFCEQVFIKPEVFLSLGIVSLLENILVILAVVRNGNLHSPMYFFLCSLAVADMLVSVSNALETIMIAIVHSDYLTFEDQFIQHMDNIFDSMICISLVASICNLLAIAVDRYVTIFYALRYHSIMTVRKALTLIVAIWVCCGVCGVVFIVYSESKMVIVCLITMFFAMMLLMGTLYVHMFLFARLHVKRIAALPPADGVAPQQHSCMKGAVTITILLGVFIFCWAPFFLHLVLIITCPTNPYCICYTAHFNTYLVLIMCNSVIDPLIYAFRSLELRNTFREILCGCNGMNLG
Sequence of Cannabinoid receptor 1 (P21554 whole entry): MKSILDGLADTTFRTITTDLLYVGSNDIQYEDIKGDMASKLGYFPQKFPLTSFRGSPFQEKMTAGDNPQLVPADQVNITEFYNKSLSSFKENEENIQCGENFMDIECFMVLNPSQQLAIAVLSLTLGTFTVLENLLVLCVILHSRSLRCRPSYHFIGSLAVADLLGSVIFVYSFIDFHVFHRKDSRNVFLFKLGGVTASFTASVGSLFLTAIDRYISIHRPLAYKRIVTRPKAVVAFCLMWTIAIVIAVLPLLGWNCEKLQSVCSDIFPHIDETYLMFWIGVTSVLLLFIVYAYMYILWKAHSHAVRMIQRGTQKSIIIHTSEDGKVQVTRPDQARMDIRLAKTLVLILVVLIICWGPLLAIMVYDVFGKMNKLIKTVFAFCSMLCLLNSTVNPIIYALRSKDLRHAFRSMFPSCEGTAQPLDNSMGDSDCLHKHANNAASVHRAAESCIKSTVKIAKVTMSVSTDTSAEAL

Compound | AC50 (Thromboxane A2 receptor) [µM] | AC50 (Cannabinoid receptor 1) [µM] | AC50 [1] [µM] | AC50 (Estrogen receptor) [µM] | AC50 [2] [µM] | AC50 (Melanocortin receptor 3) [µM] | AC50 [3] [µM] | AC50 [4] [µM]
CCOC(=O)[N-]c1cn(N2CCOCC2)n[o+]1 [MOLSIDOMINE] | > 30 | > 30 | > 30 | > 30 | > 30 | > 30 |  | 
CC[C@@H]1C(=O)OC[C@@H]1Cc1cncn1C [PILOCARPINE] | > 30 | > 30 |  | > 30 | > 10 | > 30 | > 10 | 
COC(=O)C1=C(C)NC(C)=C(C(=O)OC2CCCN(Cc3ccccc3)C2)C1c1cccc([N+](=O)[O-])c1 (configuration not stated) [BENIDIPINE] | > 30 | 16 | 18 | > 30 | 0.014 | > 30 | > 30 | 
CO/N=C(\C(=O)N[C@@H]1C(=O)N2C(C(=O)O)=C(CSc3nnnn3C)CS[C@H]12)c1csc(N)n1 [CEFMENOXIME] |  | > 30 | > 30 | > 30 |  | > 30 | > 30 | 
Clc1ccc(CCCOCCCN2CCCCC2)cc1 [PITOLISANT] | > 30 | > 30 | > 30 | > 30 |  | > 30 | > 30 | > 30
CN1CCN(CC/C=C2/c3ccccc3Sc3ccc(S(=O)(=O)N(C)C)cc32)CC1 [THIOTHIXENE] | > 30 | > 30 | > 10 | > 30 | > 10 | > 30 | > 10 | 
CC(C)OC(=O)CCC/C=C\C[C@@H]1[C@@H](CC[C@@H](O)CCc2ccccc2)[C@H](O)C[C@@H]1O [LATANOPROST] |  | > 30 | > 30 | > 30 |  | > 30 | > 30 | > 30
CCOC(=O)OC(C)OC1=C(C(=O)Nc2ccccn2)N(C)S(=O)(=O)c2ccccc21 (configuration not stated) [AMPIROXICAM] | > 30 | > 30 |  | > 30 | > 30 | > 30 | > 30 | 
CCC1(CC)C(=O)NCC(C)C1=O (configuration not stated) [METHYPRYLON] |  | > 30 | > 30 | > 30 |  | > 30 | > 30 | > 30
CC(CC(c1ccccc1)c1ccccc1)NC(C)(C)C (configuration not stated) [TERODILINE] | > 30 | > 30 | 1.4 | > 30 | > 30 | > 30 | > 30 | 
CN1CCC(=C2c3ccccc3CCc3sccc32)CC1 [PIZOTYLINE] | > 30 | > 30 | 0.093 | > 30 | 20.1 | > 30 | > 10 | 
Cc1ccc(-n2nccn2)c(C(=O)N2CCN(c3nc4cc(Cl)ccc4o3)CC[C@H]2C)c1 [SUVOREXANT] | > 10 | > 30 | > 30 | > 30 |  | > 30 | > 30 | > 30
